# According to PubChem BioAssay AID2060900 (Molecular Pharmacology Branch, DTP, NCI, 2025):
# pIC50: −log10 of the molar value. “And” between values parts separate entries of the source, which are not always exact repeats. Identical values can stand only once.
# System: 521955-158-R2-J5-PDC complex spheroids, viability
# Test: Anticancer human tumor 521955-158-R2-J5-PDC patient-derived pancreatic carcinoma cell line growth inhibition [RAS]
# Conditions: for viability, T/C: stronger effect = lower value
# Procedure, shortened: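 Tumour cells grown as complex spheroids with HUVEC endothelial cells and mesenchymal stem cells, treated with RAS pathway inhibitor combinations. Each agent spans half-log steps from near clinical Cmax, or 10 microM where Cmax is unknown.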
# [1] = curve of first compound, second compound 0.000949 µM
# [2] = curve of first compound, second compound 0.003 µM
# [3] = curve of first compound, second compound 0.00949 µM
# [4] = curve of first compound, second compound 0.03 µM
# [5] = curve of first compound, second compound 0.0949 µM
# [6] = curve of first compound, second compound 0.3 µM
# [7] = second compound 0.000949 µM, first compound 0.0316 µM
# [8] = second compound 0.000949 µM, first compound 0.1 µM
# [9] = second compound 0.003 µM, first compound 0.0316 µM
# [10] = second compound 0.003 µM, first compound 0.1 µM
# [11] = second compound 0.00949 µM, first compound 0.0316 µM
# [12] = second compound 0.00949 µM, first compound 0.1 µM
# [13] = second compound 0.03 µM, first compound 0.0316 µM
# [14] = second compound 0.03 µM, first compound 0.1 µM
# [15] = second compound 0.0949 µM, first compound 0.0316 µM
# [16] = second compound 0.0949 µM, first compound 0.1 µM
# [17] = second compound 0.3 µM, first compound 0.0316 µM
# [18] = second compound 0.3 µM, first compound 0.1 µM
# 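Also: compound exposure lasted seven days before the viability read.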
# 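For viability, T/C in this document: spheroids also contain HUVEC endothelial cells and mesenchymal stem cells as stroma.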
smiles,measurement,setting,value
CC(C)NCC(C(=O)N1CCN(c2ncnc3c2C(C)CC3O)CC1)c1ccc(Cl)cc1 (stereo not given),"viability, T/C",compound 0.0316 µM,97.9% [middle of 4 runs]
same,"viability, T/C",compound 0.1 µM,99.3% [middle of 4 runs]
same,"viability, T/C",compound 0.316 µM,96% [middle of 4 runs]
same,"viability, T/C",compound 1 µM,60.5% [middle of 4 runs]
same,"viability, T/C",compound 3.16 µM,75.7% [middle of 4 runs]
same,"viability, T/C",compound 10 µM,72.5% [middle of 4 runs]
same,pIC50,curve of compound,< 5.00
NC1c2ccccc2OC12CCN(c1cnc3c(N4CCCc5ncccc54)n[nH]c3n1)CC2 (stereo not given) + CCn1c(-c2cccnc2C(C)OC)c2c3cc(ccc31)N1CCOC(CC(NC(=O)C(C(C)C)N(C)C(=O)C3(F)CCN(C(=O)C#CC(C)(C)N(C)C)CC3)C(=O)N3CCCC(N3)C(=O)OCC(C)(C)C2)C1,pIC50,[1],5.35
same,pIC50,[2],< 5.00
same,pIC50,[3],6.01
same,pIC50,[4],< 5.00
same,pIC50,[5],5.92
same,pIC50,[6],6.89
same,"viability, T/C",[7],62.7%
same,"viability, T/C",[8],61.4%
same,"viability, T/C","second compound 0.000949 µM, first compound 0.316 µM",53.5%
same,"viability, T/C","second compound 0.000949 µM, first compound 1 µM",52.3%
same,"viability, T/C","second compound 0.000949 µM, first compound 3.16 µM",50.2%
same,"viability, T/C","second compound 0.000949 µM, first compound 10 µM",50%
same,"viability, T/C",[9],64%
same,"viability, T/C",[10],51%
same,"viability, T/C","second compound 0.003 µM, first compound 0.316 µM",58.8%
same,"viability, T/C","second compound 0.003 µM, first compound 1 µM",55.4%
same,"viability, T/C","second compound 0.003 µM, first compound 3.16 µM",52.7%
same,"viability, T/C","second compound 0.003 µM, first compound 10 µM",49.8%
same,"viability, T/C",[11],53.7%
same,"viability, T/C",[12],48.1%
same,"viability, T/C","second compound 0.00949 µM, first compound 0.316 µM",51.8%
same,"viability, T/C","second compound 0.00949 µM, first compound 1 µM",52.5%
same,"viability, T/C","second compound 0.00949 µM, first compound 3.16 µM",53.2%
same,"viability, T/C","second compound 0.00949 µM, first compound 10 µM",43.6%
same,"viability, T/C",[13],60.3%
same,"viability, T/C",[14],56.8%
same,"viability, T/C","second compound 0.03 µM, first compound 0.316 µM",44.2%
same,"viability, T/C","second compound 0.03 µM, first compound 1 µM",51.3%
same,"viability, T/C","second compound 0.03 µM, first compound 3.16 µM",58.9%
same,"viability, T/C","second compound 0.03 µM, first compound 10 µM",47.1%
same,"viability, T/C",[15],52.9%
same,"viability, T/C",[16],54.4%
same,"viability, T/C","second compound 0.0949 µM, first compound 0.316 µM",43.3%
same,"viability, T/C","second compound 0.0949 µM, first compound 1 µM",49.7%
same,"viability, T/C","second compound 0.0949 µM, first compound 3.16 µM",56.5%
same,"viability, T/C","second compound 0.0949 µM, first compound 10 µM",45.7%
same,"viability, T/C",[17],51.3%
same,"viability, T/C",[18],46.3%
same,"viability, T/C","second compound 0.3 µM, first compound 0.316 µM",51.9%
same,"viability, T/C","second compound 0.3 µM, first compound 1 µM",51.3%
same,"viability, T/C","second compound 0.3 µM, first compound 3.16 µM",49.5%
same,"viability, T/C","second compound 0.3 µM, first compound 10 µM",42.9%
C[C@@H](NC(=O)c1ncnc(N)c1Cl)c1ncc(C(=O)Nc2cc(C(F)(F)F)c(Cl)cn2)s1,"viability, T/C",compound 10 µM,60.9% [middle of 4 runs]
same,pIC50,curve of compound,< 5.00 and 5.24
CC(C)n1nc(-c2ccc3oc(N)nc3c2)c2c(N)ncnc21 + CCn1c(-c2cc(N3CCN(C)CC3)cnc2C(C)OC)c2c3cc(ccc31)-c1csc(n1)CC(NC(=O)C1CC1C)C(=O)N1CCCC(N1)C(=O)OCC(C)(C)C2,pIC50,[1],> 9.50
same,pIC50,[2],> 9.50
same,pIC50,[3],> 9.50
same,pIC50,[4],> 9.50
same,pIC50,[5],> 9.50
same,pIC50,[6],> 9.50
same,"viability, T/C","second compound 0.000949 µM, first compound 0.000316 µM",38.5%
same,"viability, T/C","second compound 0.000949 µM, first compound 0.001 µM",40.2%
same,"viability, T/C","second compound 0.000949 µM, first compound 0.00316 µM",37.6%
same,"viability, T/C","second compound 0.000949 µM, first compound 0.01 µM",39.8%
same,"viability, T/C",[7],22.7%
same,"viability, T/C",[8],21.2%
same,"viability, T/C","second compound 0.003 µM, first compound 0.000316 µM",34.6%
same,"viability, T/C","second compound 0.003 µM, first compound 0.001 µM",38.8%
same,"viability, T/C","second compound 0.003 µM, first compound 0.00316 µM",28.7%
same,"viability, T/C","second compound 0.003 µM, first compound 0.01 µM",22.6%
same,"viability, T/C",[9],11.2%
same,"viability, T/C",[10],7.9%
same,"viability, T/C","second compound 0.00949 µM, first compound 0.000316 µM",31.3%
same,"viability, T/C","second compound 0.00949 µM, first compound 0.001 µM",30.2%
same,"viability, T/C","second compound 0.00949 µM, first compound 0.00316 µM",34.9%
same,"viability, T/C","second compound 0.00949 µM, first compound 0.01 µM",21.4%
same,"viability, T/C",[11],14.2%
same,"viability, T/C",[12],6.83%
same,"viability, T/C","second compound 0.03 µM, first compound 0.000316 µM",25.3%
same,"viability, T/C","second compound 0.03 µM, first compound 0.001 µM",22%
same,"viability, T/C","second compound 0.03 µM, first compound 0.00316 µM",20.4%
same,"viability, T/C","second compound 0.03 µM, first compound 0.01 µM",17.9%
same,"viability, T/C",[13],11.7%
same,"viability, T/C",[14],6.04%
same,"viability, T/C","second compound 0.0949 µM, first compound 0.000316 µM",11.8%
same,"viability, T/C","second compound 0.0949 µM, first compound 0.001 µM",11%
same,"viability, T/C","second compound 0.0949 µM, first compound 0.00316 µM",15.8%
same,"viability, T/C","second compound 0.0949 µM, first compound 0.01 µM",12.2%
same,"viability, T/C",[15],10%
same,"viability, T/C",[16],3.64%
same,"viability, T/C","second compound 0.3 µM, first compound 0.000316 µM",9.8%
same,"viability, T/C","second compound 0.3 µM, first compound 0.001 µM",10.4%
same,"viability, T/C","second compound 0.3 µM, first compound 0.00316 µM",7.93%
same,"viability, T/C","second compound 0.3 µM, first compound 0.01 µM",7.87%
same,"viability, T/C",[17],6.76%
same,"viability, T/C",[18],3.75%
CC1(C)CCC(Nc2ncc(C(F)(F)F)c(-c3c[nH]c4c(P(C)(C)=O)c(C#N)ccc34)n2)CN1 (stereo not given),"viability, T/C",compound 0.000949 µM,104% [middle of 4 runs]
same,"viability, T/C",compound 0.003 µM,74.5% [middle of 4 runs]
same,"viability, T/C",compound 0.00949 µM,57.2% [middle of 4 runs]
same,"viability, T/C",compound 0.03 µM,48.7% [middle of 4 runs]
same,"viability, T/C",compound 0.0949 µM,52.8% [middle of 4 runs]
Nc1ccn(C2OC(CO)C(O)C2(F)F)c(=O)n1 (stereo not given),"viability, T/C",compound 0.00316 µM,101% [middle of 4 runs]
same,"viability, T/C",compound 0.01 µM,79% [middle of 4 runs]
same,"viability, T/C",compound 0.0316 µM,79.1% [middle of 4 runs]
same,"viability, T/C",compound 0.1 µM,72.9% [middle of 4 runs]
same,"viability, T/C",compound 0.316 µM,36.5% [middle of 4 runs]
same,"viability, T/C",compound 1 µM,16.2% [middle of 4 runs]
same,IC50,curve of compound,183 nM [middle of 4 runs]
CCn1c(-c2cccnc2C(C)OC)c2c3cc(ccc31)N1CCOC(CC(NC(=O)C(C(C)C)N(C)C(=O)C3(F)CCN(C(=O)C#CC(C)(C)N(C)C)CC3)C(=O)N3CCCC(N3)C(=O)OCC(C)(C)C2)C1 (stereo not given),"viability, T/C",compound 0.000949 µM,101% [middle of 8 runs]
same,"viability, T/C",compound 0.003 µM,101% [middle of 8 runs]
same,"viability, T/C",compound 0.03 µM,94.8% [middle of 8 runs]
same,"viability, T/C",compound 0.3 µM,77.3% [middle of 8 runs]
same,pIC50,"compound alone, run of 05/20/2024",< 6.52
